Measurements as given in paper PMC11045757, “Group 3 medulloblastoma transcriptional networks collapse under domain specific EP300/CBP inhibition” (Nature Communications, 2024).
Values joined by “and” are separate entries in the source; they are usually repeats but may differ in a detail not shown here. Identical values can stand only once. Like-named read-outs stand apart in the source and are kept apart here.

Tests used:
Format in all cases: binding
EP300 bromodomain = biological target: T1, EP300 bromodomain (Homo sapiens, UniProt Q09472); experiment: Differential scanning fluorimetry (DSF) thermal shift
T1 construct: 6xHis (cleaved yes); host or cells: E. coli BL21 (DE3) RIL
T1 sequence (Q09472 1048-1161): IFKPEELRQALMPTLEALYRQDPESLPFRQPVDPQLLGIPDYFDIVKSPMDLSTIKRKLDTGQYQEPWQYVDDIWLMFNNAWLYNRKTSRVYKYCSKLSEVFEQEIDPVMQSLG
Procedure: (§1) At OD600 of 0.6, the culture was cooled down to 18 °C and induced with 0.1 mM IPTG. After 18 h growth, the culture was harvested by centrifugation at 6000 × g for 25 min and stored at -80 °C. Harvested cell pellets were re-suspended in 50 mM Na/K phosphate buffer (pH 7.4) containing 100 mM NaCl, 40 mM imidazole, 0.01% w/v lysozyme and 0.01% v/v Triton X-100 at 4 °C for 1 h, subjected to sonication and the lysate was clarified by centrifugation (30,000 × g for 45 min at 4 °C). Proteins were purified by FPLC at 4 °C using columns and chromatography materials from GE Healthcare. […] Proteins were purified to homogeneity by size exclusion chromatography using Superdex 75 equilibrated with elution buffer (50 mM HEPES pH 7.5, 100 mM NaCl, 2 mM DTT). All BRDs eluted as monomeric protein and were of crystallization grade quality (>95% purity as judged by SDS-PAGE). Pool fractions were combined, concentrated to 10–12 mg/ml, and aliquots were flash-frozen in liquid N2 and stored at −80 °C.
(§2) DSF experiments were performed with an Applied Biosystem StepOnePlus real-time PCR system (Thermo Fisher Scientific) using 96-well format plates, assayed in quadruplicate. For thermal shift determination, 5 μM protein was mixed with 100 μM compound in 50 mM HEPES, pH 7.5, 150 mM NaCl, 2 mM DTT, 2% DMSO, 5X SYPRO Orange (Thermo Fisher Scientific) in 20 μL reaction volumes. Reaction mixtures were heated from 25 to 95 °C at 1 °C/min with fluorescence readings every 0.5 °C at 610 nm. The observed thermal shift (ΔTm) was recorded as the difference between the Tm of sample and DMSO reference wells.

BRD4-BD1 (BRD4-1) = biological target: T2, BRD4-BD1 (BRD4-1) (Homo sapiens, UniProt O60885); experiment: as above; conditions: BRD4-BD1
T2 construct: BRD4-BD1 (residues 44-168); 6xHis (cleaved yes); host or cells: E. coli BL21 (DE3) RIL
Procedure: as §1, §2

[1] = biological target: GFP-tagged CBP bromodomain (Homo sapiens, UniProt Q92793); experiment: Microscale thermophoresis (MST); conditions: for Response (Dose Response Curve): MST raw response; for Kd: MST; for Bound (Fit Results): fitted MST response of bound state; for Bound (Fit Results) / Unbound (Fit Results): target clGFP-CBPBRD 5e-8; for Unbound (Fit Results): fitted MST response of unbound state
Procedure: MST experiments were performed in a Monolith NT.115 Pico instrument (NanoTemper Technologies) following published procedures. […] MST traces were recorded using standard parameters: 5 s MST power off, 30 s MST power on and 5 s MST power off. Measurements were taken at -1-0 s (cold region) and 10 s (hot region) and data were analyzed using the NTAnalysis software.

CBP bromodomain = biological target: T3, CBP bromodomain (Homo sapiens, UniProt Q92793); experiment: Differential scanning fluorimetry (DSF) thermal shift; conditions: for ΔTm (°C) CBP: DSF
T3 construct: CBP (residues 1081-1197); 6xHis (cleaved yes); host or cells: E. coli BL21 (DE3) RIL
Procedure: as §1, with “After” for “At OD600 of 0.6, the culture was cooled down to 18 °C and induced with 0.1 mM IPTG. After”, “All BRDs eluted as monomeric protein and were of crystallization grade quality (>95% purity as judged by SDS-PAGE).” left out
DSF experiments were performed with an Applied Biosystem StepOnePlus real-time PCR system (Thermo Fisher Scientific) using 96-well format plates, assayed in quadruplicate. For thermal shift determination, 5 μM protein was mixed with 100 μM compound in 50 mM HEPES, pH 7.5, 150 mM NaCl, 2 mM DTT, 2% DMSO, 5X SYPRO Orange (Thermo Fisher Scientific) in 20 μL reaction volumes.

[2] = Dose 1.52588e-10, single replicate run
[3] = Dose 3.05176e-10, single replicate run
[4] = Dose 6.10352e-10, single replicate run
[5] = Dose 1.2207e-9, single replicate run
[6] = Dose 2.44141e-9, single replicate run
[7] = Dose 4.88281e-9, single replicate run
[8] = Dose 9.76563e-9, single replicate run
[9] = Dose 1.95313e-8, single replicate run
[10] = Dose 3.90625e-8, single replicate run
[11] = Dose 7.8125e-8, single replicate run
[12] = Dose 1.5625e-7, single replicate run
[13] = Dose 3.125e-7, single replicate run
[14] = Dose 6.25e-7, single replicate run
[15] = Dose 1.25e-6, single replicate run
[16] = Dose 2.5e-6, single replicate run
[17] = Dose 5e-6, single replicate run
[18] = single replicate run, target clGFP-CBPBRD, TargetConcentration 5e-8, MST-Power Medium, unit inferred, read-out: Kd (Fit Results, Fit Model: Kd)

T3 sequence (Q92793 1081-1197): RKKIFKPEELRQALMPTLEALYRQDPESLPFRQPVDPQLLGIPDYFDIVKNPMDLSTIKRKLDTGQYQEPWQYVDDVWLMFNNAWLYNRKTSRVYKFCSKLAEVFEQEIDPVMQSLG
Chain of GFP-tagged CBP bromodomain (Q92793 1085-1192 limits assumed): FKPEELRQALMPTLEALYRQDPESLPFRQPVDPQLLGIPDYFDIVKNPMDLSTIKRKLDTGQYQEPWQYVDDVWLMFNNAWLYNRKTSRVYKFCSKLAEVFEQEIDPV

| Response (Dose Response Curve) [1, 2] | Response (Dose Response Curve) [1, 3] | Response (Dose Response Curve) [1, 4] | Response (Dose Response Curve) [1, 5] | Response (Dose Response Curve) [1, 6] | Response (Dose Response Curve) [1, 7] | Response (Dose Response Curve) [1, 8] | Response (Dose Response Curve) [1, 9] | Response (Dose Response Curve) [1, 10] | Response (Dose Response Curve) [1, 11] | Response (Dose Response Curve) [1, 12] | Response (Dose Response Curve) [1, 13] | Response (Dose Response Curve) [1, 14] | Response (Dose Response Curve) [1, 15] | Response (Dose Response Curve) [1, 16] | Response (Dose Response Curve) [1, 17] | Kd [1, 18] | Bound (Fit Results) ([1]; single replicate run) | Unbound (Fit Results) ([1]; single replicate run) | Structure (SMILES) | also measured |
| --- | --- | --- | --- | --- | --- | --- | --- | --- | --- | --- | --- | --- | --- | --- | --- | --- | --- | --- | --- | --- |
|  |  |  |  |  |  |  |  |  |  |  |  |  |  |  |  |  |  |  | COc1ccc(CCc2nc3cc(-c4c(C)noc4C)ccc3n2C[C@H](C)N2CCOCC2)cc1Cl [SGC-CBP30] | ΔTm (°C) (EP300 bromodomain; DSF thermal shift vs DMSO, EP300 bromodomain, Fig 2B): 7.9 °C; ΔTm (°C) (BRD4-BD1 (BRD4-1); DSF thermal shift vs DMSO, Fig 2B): 0 °C |
| 915.174 | 914.49 | 915.362 | 915.368 | 914.907 | 914.429 | 913.858 | 914.04 | 913.557 | 913.257 | 911.399 | 910.65 | 909.717 | 910.942 | 910.368 | 911.15 | 44.3 nM | 910.375 | 914.969 | COC1CCC(n2c(C3CCCC(=O)N3c3ccccc3)nc3cc(-c4c(C)noc4C)ccc32)CC1 (stereo not shown) [iCBP5-5] |  |
| 893.145 and 893.496 and 892.759 | 891.612 and 893.465 and 892.592 | 892.684 and 894.151 and 892.213 | 892.641 and 893.04 and 893.233 | 892.502 and 892.231 and 892.986 | 891.878 and 891.94 and 891.268 | 891.027 and 892.27 and 891.532 | 892.42 and 891.618 and 892.241 | 890.537 and 890.96 and 891.609 | 889.07 and 889.984 and 889.085 | 888.52 and 887.496 and 888.851 | 887.2 and 888.101 and 888.455 | 887.415 and 887.704 and 886.214 | 888.032 and 886.878 and 886.638 | 887.475 and 888.923 and 888.41 | 888.712 and 888.775 and 886.626 | 20 nM and 15.2 nM and 54.7 nM | 887.696 and 887.896 and 886.89 | 892.536 and 893.196 and 892.626 | COC1CCC(n2c(C3CCCC(=O)N3c3cccc(C(C)(C)C)c3)nc3cc(-c4c(C)noc4C)ccc32)CC1 (stereo not shown) [iCBP-6] | Kd ([1]; Figure 3C, read-out: MST Kd): 30 nM; ΔTm (°C) EP300 (EP300 bromodomain; Figure 3B, DSF, EP300): 14.3 °C; ΔTm (°C) BRD4-BD1 (BRD4-BD1 (BRD4-1); Figure 3A, DSF): 3.2 °C; ΔTm (°C) CBP (CBP bromodomain; Figure 3A, CBP bromodomain): 15.3 °C; ΔTm (°C) CBP (CBP bromodomain; Figure 3B, CBP): 15.3 °C; DSF ΔTm (°C) (CBP bromodomain; Figure 3C, DSF (values equal CBP column)): 15.3 °C |
